Reference: publication PMC4791539, “Crystal structure of Anoxybacillus α-amylase provides insights into maltose binding of a new glycosyl hydrolase subclass” (Scientific Reports, 2016)

Target: T1, TASKA (truncated ASKA) (Anoxybacillus ayderensis, UniProt I1VWH9)
T1 construct: signal peptide (1-23) and predicted C-terminal transmembrane region (479-505) removed; 6xHis tags at N- and C-termini (pET-28a); E. coli BL21(DE3); monomer in asymmetric unit
T1 sequence (I1VWH9 24-478): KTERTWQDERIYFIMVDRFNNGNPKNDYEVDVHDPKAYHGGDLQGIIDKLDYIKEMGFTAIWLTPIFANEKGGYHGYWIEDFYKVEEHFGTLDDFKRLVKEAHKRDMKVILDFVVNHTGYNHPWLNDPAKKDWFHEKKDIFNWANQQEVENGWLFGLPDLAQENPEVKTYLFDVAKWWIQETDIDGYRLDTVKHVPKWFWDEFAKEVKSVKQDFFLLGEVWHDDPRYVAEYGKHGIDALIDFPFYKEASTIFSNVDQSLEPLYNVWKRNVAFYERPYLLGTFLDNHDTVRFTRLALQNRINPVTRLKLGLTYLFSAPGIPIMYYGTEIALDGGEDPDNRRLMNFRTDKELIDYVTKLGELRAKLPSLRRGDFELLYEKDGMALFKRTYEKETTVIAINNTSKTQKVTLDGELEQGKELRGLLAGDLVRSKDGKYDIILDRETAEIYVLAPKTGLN
Assay: UPLC-ELSD product analysis
Type: biochemical
Conditions: hydrolysed to glucose and maltose; co-crystal (TASKA-T) shows only maltose

SMILES: OC[C@H]1O[C@H](O[C@H]2[C@H](O)[C@@H](O)[C@@H](O[C@H]3[C@H](O)[C@@H](O)C(O)O[C@@H]3CO)O[C@@H]2CO)[C@H](O)[C@@H](O)[C@@H]1O (stereo partly shown) [maltotriose]
- UPLC-ELSD product analysis: glucose and maltose were produced following the hydrolysis of maltotriose
